Test results as given in patent US12357603B2, “Acyl sulfonamides for treating cancer” (Bayer Aktiengesellschaft, priority 2019, dated 2025).

What was measured:
[1] = biological target: Recombinant human His-tagged Kat6a protein (amino acids 194-810) (Homo sapiens (Human), UniProt Q92794); experiment: Kat6a activity assay (TR-FRET, acetylation of biotinylated Histone-H4-derived peptide); assay type: biochemical; conditions: 60 mins at 22° C., read-out: KAT6A-DPF/HAT domain IC50 [mol/l] (arithmetic mean)
Sequence of Recombinant human His-tagged Kat6a protein (amino acids 194-810) (Q92794 194-810): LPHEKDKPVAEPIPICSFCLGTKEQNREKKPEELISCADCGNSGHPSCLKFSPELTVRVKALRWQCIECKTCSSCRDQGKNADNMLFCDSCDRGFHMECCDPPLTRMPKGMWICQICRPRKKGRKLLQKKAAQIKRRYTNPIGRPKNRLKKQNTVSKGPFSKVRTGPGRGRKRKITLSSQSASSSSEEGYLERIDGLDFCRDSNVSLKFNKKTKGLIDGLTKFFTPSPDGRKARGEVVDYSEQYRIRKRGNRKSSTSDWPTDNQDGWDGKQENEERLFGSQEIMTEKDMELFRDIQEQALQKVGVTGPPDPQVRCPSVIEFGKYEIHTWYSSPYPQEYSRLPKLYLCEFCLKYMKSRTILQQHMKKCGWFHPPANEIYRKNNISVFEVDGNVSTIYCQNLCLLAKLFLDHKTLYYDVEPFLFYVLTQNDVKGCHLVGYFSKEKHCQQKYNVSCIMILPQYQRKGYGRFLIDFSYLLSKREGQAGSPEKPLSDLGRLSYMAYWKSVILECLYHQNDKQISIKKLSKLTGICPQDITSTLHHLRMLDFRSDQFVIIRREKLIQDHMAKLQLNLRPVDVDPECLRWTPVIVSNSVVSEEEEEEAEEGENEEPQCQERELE
Source text: Kat6a inhibitory activities of the compounds described in the present invention were quantified using a Fluorescence Resonance Energy Transfer (TR-FRET) assay which measures acetylation of a synthetic, biotinylated Histone-H4-derived peptide by the enzyme.
Recombinant human His-tagged Kat6a protein (amino acids 194-810), was purified in-house from Baculovirus-infected insect cells (Sf9). Histone H4 peptide (amino acids 1-24, […]-VLRD-K(Btn)-amide), which was used as substrate, was synthesized by Biosyntan GmbH, Berlin, Germany. Acetyl Coenzyme A was purchased from Sigma-Aldrich (#A-2056).
Kat6a was incubated for 60 mins at 22° C. in the presence of different concentrations of test substances (0 μM, and within the range 0.01-20 μM) in assay buffer [25 mM Tris/HCl pH 8, 1 mM EGTA, 2.5 mM Glutathion, 0.02% Chicken Albumin, 0.05% Pluronic F127, 25 mM NaCl, 220 nM H4 peptide and 600 nM Acetyl Coenzym A].
The reaction was stopped by addition of Detection Solution (25 mM HEPES pH 7.5, 0.1% BSA, 22 nM SAXL665 (Cisbio #610SAXLE), 100 μM Anacardic Acid (Enzo #ALX-270-381), 1 nM Anti-Histone H4 (ACETYL K8) Antibody (ABCAM #AB15823) and 0.5 nM Anti-Rabbit IgG Eu (Perkin Elmer #AD0083).
The fluorescence emission at 620 nm and 665 nm after excitation at 330-350 nm was measured in a TR-FRET measuring instrument, for instance a Rubystar or a Pherastar (both from BMG Lab Technologies, Offenburg, Germany) or a Viewlux (Perkin-Elmer). The ratio of the emission at 665 nm and at […] was used as indicator of the amount of acetylated peptide.
The resulting data (ratio) were normalized, taking 0% inhibition as the mean value of control measurements where all reagents were included. In this case 50 nl DMSO were used instead of compounds. […] IC50 values were determined by regression analysis based on a 4 parameter equation (minimum, maximum, ICM, Hill; Y=Max+(Min−Max)/(1+(X/ICso) Hill) using the Screener Software (Genedata).
Table 5 depicts the IC50 values of selected examples in biochemical KAT6A and KAT6B3 assays.

[2] = system: ESR1 transcription (luciferase signal in MVLN cells); experiment: Repression of ESR1 transcription, luciferase reporter in MVLN cells; assay type: cell-based; conditions: Homo sapiens, MVLN, inhibition of luciferase signal in MVLN cells; arithmetic mean
Source text: Repression of ESR1 Transcription Upon Treatment of Cells with Compounds
KAT6A controls transcription of the ESR1 gene in breast cancer cells. Compound treatment that interferes with this mechanism was quantified using MVLN cells. These cells constitutively express the ER and are stably transfected with the luciferase (LUC) reporter gene and the corresponding hormone responsive element derived from the 5′-flanking region of the Xenopus Vitellogenin A2 gene (Pons et al., 1990, Demirpense et al., 1993, Joyeux et al., 1993). The repressive effect on ERα transcription activity of a test chemical is directly related to the luciferase measured in the lysate of treated MVLN cells.
Each sample was prepared as duplicate and rim wells were excluded. For luciferase signal determination 100 μl of a 1:1 mixture of Steadylite plus (Perkin Elmer; 6016759) and assay medium was added after 24 h for 15 minutes and measured in Victor X3 (Perkin Elmer). To exclude any effects caused by cell loss during the treatment, cell density was determined using Alamar Blue (Invitrogen; DAL1100). Prior to the luciferase measurement 10 μl Alamar Blue were added to each well and the plates were incubated for 2 h in the incubator. Then fluorescence was measured with Victor X3 (Perkin Elmer) at 530 nm/590 nm.

IC50 [1] [nM]	IC50 [2] [nM]	SMILES
86.4	–	CC(c1ccc(Cl)cc1Cl)S(=O)(=O)NC(=O)c1cc2ccc(N(C)C)cc2o1 (racemic) [Example 55, N-[1-(2,4-Dichlorophenyl)ethanesulfonyl]-6-(dimethylamino)-1-benzofuran-2-carboxamide (rac)]
67.6	–	CC(c1c(Cl)cccc1Cl)S(=O)(=O)NC(=O)c1cc2ccc(N(C)C)cc2o1 (racemic) [Example 56, N-[1-(2,6-Dichlorophenyl)ethanesulfonyl]-6-(dimethylamino)-1-benzofuran-2-carboxamide (rac)]
40.6	226	CC(Oc1cccc(OC2CCC2)c1S(=O)(=O)NC(=O)c1cc2ccc(N(C)C)cc2o1)C(F)(F)F (racemic) [Example 84, N-[2-(Cyclobutyloxy)-6-{[(2S)-1,1,1-trifluoropropan-2-yl]oxy}benzene-1-sulfonyl]-6-(dimethylamino)-1-benzofuran-2-carboxamide (rac)]
129	–	CN(C)c1ccc2cc(C(=O)NS(=O)(=O)c3ccccc3Br)oc2c1 [Example 18, N-(2-Bromobenzene-1-sulfonyl)-6-(dimethylamino)-1-benzofuran-2-carboxamide]
430	–	CN(C)c1ccc2cc(C(=O)NS(=O)(=O)c3ccccc3C(F)(F)F)oc2c1 [Example 54, 6-(Dimethylamino)-N-[2-(trifluoromethyl)benzene-1-sulfonyl]-1-benzofuran-2-carboxamide]
38.2	–	CCOc1ccc(Br)cc1S(=O)(=O)NC(=O)c1cc2ccc(N(C)C)cc2o1 [Example 57, N-(5-Bromo-2-ethoxybenzene-1-sulfonyl)-6-(dimethylamino)-1-benzofuran-2-carboxamide]
534	–	CCOc1ccncc1S(=O)(=O)NC(=O)c1cc2ccc(N(C)C)cc2o1 [Example 58, 6-(Dimethylamino)-N-(4-ethoxypyridine-3-sulfonyl)-1-benzofuran-2-carboxamide]
86.1	–	CN(C)c1ccc2cc(C(=O)NS(=O)(=O)c3ccccc3O)oc2c1 [Example 59, 6-(Dimethylamino)-N-(2-hydroxybenzene-1-sulfonyl)-1-benzofuran-2-carboxamide]
3200	–	CCOC(=O)N1CCC(S(=O)(=O)NC(=O)c2cc3ccc(N(C)C)cc3o2)CC1 [Example 60, Ethyl-4-{[6-(dimethylamino)-1-benzofuran-2-carbonyl]sulfamoyl}piperidine-1-carboxylate]
335	340	CCOc1c(F)cccc1S(=O)(=O)NC(=O)c1cc2ccc(N(C)C)cc2o1 [Example 169, 6-(Dimethylamino)-N-(2-ethoxy-3-fluoro-phenyl)sulfonyl-benzofuran-2-carboxamide]
94.9	102	CCOc1cc(F)ccc1S(=O)(=O)NC(=O)c1cc2ccc(N(C)C)cc2o1 [Example 171, 6-(Dimethylamino)-N-(2-ethoxy-4-fluoro-phenyl)sulfonyl-benzofuran-2-carboxamide]
11.8	123	CCOc1ccc(Oc2ccccc2)cc1S(=O)(=O)NC(=O)c1cc2ccc(N(C)C)cc2o1 [Example 174, 6-(Dimethylamino)-N-(2-ethoxy-5-phenoxy-phenyl)sulfonyl-benzofuran-2-carboxamide]

SMILES	IC50 [1] [nM]	IC50 [2] [nM]
CN(C)c1ccc2cc(C(=O)NS(=O)(=O)c3ccccc3-c3ccccc3)oc2c1Br [Example 50, N-([Biphenyl]-2-ylsulfonyl)-7-bromo-6-(dimethylamino)-1-benzofuran-2-carboxamide]	4230	–
